Where a name gives a salt, the structure may show the parent alone.

This series in a line: Stability Test: storage at 60° C., 75% R.H., residual amount of the compound by HPLC. The format is physicochemical. The protocol:
The crystals of N-[1-butyl-4-[3-[3-(hydroxy)propoxy]-phenyl]-1,2-dihydro-2-oxo-1,8-naphthyridin-3-yl]-N′-(2,6-diisopropyl-4-aminophenyl)urea hydrochloride monohydrate obtained in Example 1 and amorphous N-[1-butyl-4-[3-[3-(hydroxy)propoxy]phenyl]-1,2-dihydro-2-oxo-1,8-naphthyridin-3-yl]-N′-(2,6-diisopropyl-4-aminophenyl)urea hydrochloride were stored at a temperature of 60° C. under a relative humidity (R.H.) of 75% for 4 weeks. Then, the residual amount of the compound therein was quantitatively analyzed using High Performance Liquid Chromatography (HPLC).

In the case of `CCCCn1c(=O)c(NC(=O)Nc2c(C(C)C)cc(N)cc2C(C)C)c(-c2cccc(OCCCO)c2)c2cccnc21` [Example 1, N-[1-butyl-4-[3-[3-(hydroxy)propoxy]phenyl]-1,2-dihydro-2-oxo-1,8-naphthyridin-3-yl]-N′-(2,6-diisopropyl-4-amino-phenyl)urea hydrochloride monohydrate], the “stability compared with the amorphous hydrochloride” value (60° C., 75% R.H., 4 weeks, conclusion in words from Table 2) was “quite excellent in stability”.
On to `CCCCn1c(=O)c(NC(=O)Nc2c(C(C)C)cc(N)cc2C(C)C)c(-c2cccc(OCCCO)c2)c2cccnc21.Cl` [Amorphous, N-[1-butyl-4-[3-[3-(hydroxy)propoxy]phenyl]-1,2-dihydro-2-oxo-1,8-naphthyridin-3-yl]-N′-(2,6-diisopropyl-4-aminophenyl)urea hydrochloride], for which the “HPLC Area Percentage (%)” value runs as follows: (Initial value, before storage at 60° C. / 75% R.H.) 97.7%; (storage period 2 weeks at 60° C., relative humidity 75%) 94.6%; (storage period 4 weeks at 60° C., relative humidity 75%) 92.7%.

Source of the values: patent publication US7067528B2, “1, 2-dihydro-2-oxo-1, 8-naphthyridine derivative” (Sumitomo Pharmaceuticals Co., Ltd., priority 2001, dated 2006).
